Consider 6 molecules from patent publication US7803803B2, “Tetrahydrofuro[3,2-B] pyrrol-3-ones as cathepsin K inhibitors” (Amura Therapeutics Limited, priority 2007, dated 2010).

Data set [1] concerns human osteoclasts. The conditions noted are these: human osteoclast, literature value; cited from earlier work.
Data set [2] is described as follows: Plasma incubations (human plasma stability). Note: tested at 25 µM. The format is in vitro ADME. The conditions noted are these: 37° C.
Protocol: Aliquots were removed at 2 and 60 minutes and quenched with an equal volume of cold acetonitrile. After mixing vigorously, the precipitated protein matter was removed by filtration (Multiscreen Solvinert filter plates, Millipore, Bedford, Mass., USA) and the filtrate analysed by reverse phase HPLC with mass spectrometric detection, using single ion monitoring of the [M+H]^+ species. Metabolic turnover was determined by comparison of peak areas from the ion chromatograms of the parent compound at 2 and 60 minutes and expressed as percent remaining at 1 hour.
A further data set in a line: LogD determinations. The format is physicochemical. Particulars: Ion-count method; for logD at 1 h: 1-octanol/phosphate buffered saline, pH 7.4, pH 7.4.
For data set [3] the following is noted: UV method, literature value; cited from earlier work.
The target in a further data set is T1, cathepsin K (Homo sapiens, UniProt P43235).
T1 sequence (P43235 115-329): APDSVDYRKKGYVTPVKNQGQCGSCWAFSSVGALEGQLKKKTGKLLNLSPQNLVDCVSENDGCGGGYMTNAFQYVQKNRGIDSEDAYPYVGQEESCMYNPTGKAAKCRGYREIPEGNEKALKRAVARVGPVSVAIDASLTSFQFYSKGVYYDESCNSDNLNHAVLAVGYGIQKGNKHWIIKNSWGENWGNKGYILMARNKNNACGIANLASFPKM
Put plainly: In vitro cathepsin Ki inhibition measurements. Type of data set: biochemical. Also noted: purchased B. Turk, Josef Stefan Institute, Ljubljana, Slovenia. Particulars: human recombinant cathepsin K; read-out: In vitro Ki (nM) vs Cath K. The procedure:
Stock solutions of substrate or inhibitor were made up to 10 mM in 100% dimethylsulfoxide (DMSO) (Rathburns, Glasgow, U.K.) and diluted as appropriately required. In all cases the DMSO concentration in the assays was maintained at less than 1% (vol./vol.). The equilibrium inhibition constants (Ki^SS) for each compound were measured under steady-state conditions monitoring enzyme activity as a function of inhibitor concentration. The values were calculated on the assumption of pure competitive behaviour (Cornish-Bowden, A. Fundamentals of enzyme kinetics Portland Press; 1995, 93-128). Human recombinant cathepsin K (0.25 nM final; B. Turk, Josef, Stefan Institute, Ljubljana, Slovenia), was routinely assayed in 100 mM sodium acetate; pH 5.5 containing 1 mM EDTA, 10 mM L-cysteine and 1.8 μM Z-Leu-Arg-AMC ([S]═KM).
The apparent inhibition constant (Ki) for each compound was determined on the basis that inhibition was reversible and occurred by a pure-competitive mechanism. The Ki values were calculated, from the dependence of enzyme activity as a function of inhibitor concentration, by direct regression analysis (Prism v 3.02) using Equation 2 (Cornish-Bowden, A., 1995).
In situations where the apparent dissociation constant (Ki^app) approached the enzyme concentrations, the Ki^app values were calculated using a quadratic solution in the form described by Equation 3 (Morrison, J. F. Trends Biochem. Sci., 7, 102-105, 1982; Morrison, J. F. Biochim. Biophys. Acta, 185, 269-286, 1969; Stone, S. R. and Hofsteenge, J. Biochemistry, 25, 4622-4628, 1986).
Curves were fitted by non-linear regression analysis (Prism) using a fixed value for the enzyme concentration. Equation 4 was used to account for the substrate kinetics, where ‘Ki’ is the inhibition constant, ‘[So]’ is the initial substrate concentration and ‘KM^app’ is the apparent macroscopic binding (Michaelis) constant for the substrate (Morrison, 1982).

The test system of data set [4] is human osteoclasts. Put plainly: Human osteoclast resorption assay. The format is cell-based. The conditions noted are these: for inhibition at 1 µM: Homo sapiens, Osteoclast, 48 h, 1 □ M, read-out: Cell-based % Inh. @ 1 □ M Human. As to the method: Bone resorption was studied using a model where human osteoclast precursor cells were cultured on bovine bone slices for 9 days and allowed to differentiate into bone-resorbing osteoclasts. The formed mature osteoclasts were then allowed to resorb bone. The assay was performed by Pharmatest Services Ltd, Itäinen Pitkakatu 4C, Turku, Finland. After the culture period, bone collagen degradation products were quantified from the culture medium as an index of bone resorption. Inhibitor compounds were added into the cell cultures after the differentiation period and their effects on the resorbing activity of mature osteoclasts were determined. The studies included a baseline group without added compounds and a positive control group where a potent cathepsin K inhibitor E-64 was added.
Human peripheral blood monocytes were suspended to culture medium and allowed to attach to bovine bone slices. The bone slices were transferred into 96-well tissue culture plates containing culture medium with appropriate amounts of important growth factors favouring osteoclast differentiation, including M-CSF, RANK-ligand and TGF-[…]. The cells were incubated in a CO2 incubator in humidified atmosphere of 95% air and 5% carbon dioxide at 37° C. At day 7 when osteoclast differentiation was complete, the culture medium was replaced with culture medium containing conditions favouring osteoclast activity. The cell culture was continued for an additional 2 days, during which the formed mature osteoclasts were allowed to resorb bone in the presence of vehicle, control inhibitor (E64) or test compounds. At the end of the culture, bone collagen degradation products released into the culture medium were determined using a commercially available ELISA method (CrossLaps® for culture, Nordic Bioscience, Herlev, Denmark) as an index of bone resorption (see Bagger, Y. Z. et al, J. Bone. Miner. Res. 14 (suppl. 1), S370).

Protocol for LogD determinations: LogD(PBS) determinations were performed in 96 well microtitre plates using a miniaturised “shake-flask” method. […] The plates were then capped and mixed vigorously for 1 hour on a microtitre plate shaker, after which they were left to stand, allowing the PBS and octanol phases to separate. The PBS layer was analysed by reverse phase HPLC with mass spectrometric detection, using single ion monitoring of the [M+H]^+ species.
Where AUCstd and AUCpbs are the peak areas from the standard and test ion chromatograms respectively.

With `CC(C)C[C@H](NC(=O)c1ccc(C(C)(C)C)cc1)C(=O)N1CC[C@H]2OCC(=O)[C@H]21` [reference compound], the “Cell-based % Inh. @ 1 □ M Human (Lit.)” value with human osteoclasts [1] was “Lit. 60%”. Besides, the “Human Plasma Stability % rem. @ 1 h” value in data set [2] is on record as 75%. The logD (usually the decadic logarithm of the distribution of all forms, ionised or not, between an organic phase and buffer at a given pH) at 1 h in “LogD determinations” was found to be 1.36.
As for `CC(C)C[C@H](NC(=O)c1ccc(N2CCN(C)CC2)cc1)C(=O)N1CC[C@H]2OCC(=O)[C@H]21` [reference compound], in data set [3], the “LogD pH 7.4 (Lit.)” value was 0.04. Moreover, the inhibition constant Ki (usually a measure of affinity in units of concentration, obtained from inhibition or displacement) on cathepsin K was 8.7 nM. Moreover, the “Human Plasma Stability % rem. @ 1 h” value in data set [2] was 95%. In addition, the logD at 1 h in the data set “LogD determinations” turned out to be 0.56.
Regarding `CO[C@@H]1CN(C(=O)[C@H](CC(C)(C)C)NC(=O)c2ccc(N3CCN(C(C)C)CC3)cc2)[C@@H]2C(=O)CO[C@@H]21` [Example 22, 4-(4-isopropylpiperazin-1-yl)-N—((S)-1-((3aS,6R,6aS)-6-methoxy-3-oxodihydro-2H-furo[3,2-b]pyrrol-4(5H,6H,6aH)-yl)-4,4-dimethyl-1-oxopentan-2-yl)benzamide], the inhibition at 1 µM with human osteoclasts [4] is 63 to 88%. Further, the Ki at cathepsin K was found to be 8.4 nM. In data set [2], the “Human Plasma Stability % rem. @ 1 h” value came out at 91%. Besides, in the data set “LogD determinations”, the logD at 1 h was over 0.8 and the “LogD pH 7.4” value is given as 1.2.
`CO[C@@H]1CN(C(=O)[C@@H](NC(=O)c2ccc(N3CCN(C)CC3)cc2)C2CCCC2)[C@@H]2C(=O)CO[C@@H]21`: the IC50 (commonly the concentration needed to halve the response being measured) in the data set on human osteoclasts [4] (read-out: Cell-based Human IC50) is 637 nM. Further, the Ki at cathepsin K was determined as 4.9 nM. Besides, in data set [2], the “Human Plasma Stability % rem. @ 1 h” value is on record as 91.8%. The molecule also displayed a logD at 1 h in “LogD determinations” of 0.75.
Turning to `COCCN1CCN(c2ccc(C(=O)N[C@@H](CC(C)C)C(=O)N3C[C@H](O)[C@H]4OCC(=O)[C@H]43)cc2)CC1` [Example 25, N—((S)-1-((3aS,6S,6aS)-6-hydroxy-3-oxodihydro-2H-furo[3,2-b]pyrrol-4(5H,6H,6aH)-yl)-4-methyl-1-oxopentan-2-yl)-4-(4-(2-methoxyethyl)piperazin-1-yl)benzamide], in the data set on human osteoclasts [4], the inhibition at 1 µM lay within 25 to 54%. The inhibition constant (Ki) at cathepsin K was determined as 6.9 nM. Also, the “Human Plasma Stability % rem. @ 1 h” value in data set [2] is 92%. Moreover, the “LogD pH 7.4” value in “LogD determinations” is on record as 0.56.
Turning to `CCN1CCN(c2ccc(C(=O)N[C@@H](CC(C)C)C(=O)N3C[C@@H](OC)[C@H]4OCC(=O)[C@H]43)cc2)CC1` [Example 7, 4-(4-ethylpiperazin-1-yl)-N—((S)-1-((3aS,6R,6aS)-6-methoxy-3-oxodihydro-2H-furo[3,2-b]pyrrol-4(5H,6H,6aH)-yl)-4-methyl-1-oxopentan-2-yl)benzamide], the inhibition at 1 µM in the data set with human osteoclasts [4] lay within 63 to 88%. The Ki on cathepsin K amounted to 9.9 nM. Besides, in data set [2], the “Human Plasma Stability % rem. @ 1 h” value turned out to be 93%. For the same molecule, in the data set “LogD determinations”, the logD at 1 h is over 0.8 and the “LogD pH 7.4” value was determined as 0.89.
